Values quoted from earlier work in patent US20220273779A1, “TAU PEPTIDE ANTIGENS AND ANTIBODIES BINDING THERETO FOR THE TREATMENT OF TAUOPATHIES” (The Board of Regents of the University of Texas System, priority 2018, published 2022).
Like-named read-outs stand apart in the source and are kept apart here.

Experiments:
[1] = RRMS, first-line treatments

glatiramer acetate
Irritation at the injection site (intramuscular injections): ≤ 33% | Irritation at the injection site (subcutaneous injections): up to 90% | Reduction of relapses [1]: approximately 30%
